Patent US4349685A (priority 1981, dated 1982)

Key:
[1] = system: causative organism of wheat leaf rust; experiment: Control of wheat leaf rust by aqueous suspension of the compound; assay type: in vivo; conditions: 300 parts per million by weight, sole compound
[2] = system: causative organism of downey mildew; experiment: Control of downey mildew on host plants (root drench and foliar treatment); assay type: in vivo; conditions: 500 parts per million by weight solution; root system application and foliar treatment of host plants
Description: Solutions containing 500 parts per million by weight of the compound were formulated and applied to the host plants through two different modes of administration. First, the solution was applied to the root system of the host plants by drenching the chemicals into the pots or by placing the pots into larger cups containing the solution of the compound. Second, a foliar chemical treatment was applied to the host plants. The plants were then exposed to the pathogen and placed under conditions suitable for infection and development of the disease.

SMILES | kill of the causative organism of wheat leaf rust [1] | control of the causative organism of downey mildew [2] [%]
CCC(=O)OCCNC(=O)Oc1ccc2oc(=O)sc2c1 [Example 1, 5-[2-(Propionyloxy)ethylcarbamoyloxy]-1,3-benzoxathiol-2-one] | substantially complete kill | 
CCc1cccc(NC(=O)Oc2ccc3oc(=O)sc3c2)c1 [Example 4, 5-[(3-Ethylphenyl)carbamoyloxy]-1,3-benzoxathiol-2-one] |  | 90
